# Measurements taken from patent US11174253B2, “Compound and pharmaceutical composition containing the same” (ALPHALA CO., LTD., priority 2017, dated 2021).
# System: hepatocellular carcinoma cell line Hep3B
# Assay: Growth inhibition of Hep3B cells, 48 hr treatment, Hoechst 33342 nucleus count (GE InCell 2200)
# Type: cell-based
# Details: Homo sapiens, Table 1, ratio of number of tumor cells treated with 10 μM compound to non-treated cells
# Method in brief: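 Compound exposure lasted 48 hr at 37° C, 5% CO2. Surviving nuclei were counted after Hoechst 33342 staining, and survival was expressed as the treated/non-treated cell number ratio, including the ratio at 10 μM compound.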
row,SMILES,viability at 10 µM [%]
1,"CCCCOc1ccc(-c2nnc(NC(=O)Cc3ccc4nc(N)sc4c3)s2)cc1 [Compound 1-21, 2-(2-aminobenzo[d]thiazol-6-yl)-N-(5-(4-butoxyphenyl)-1,3,4-thiadiazol-2-yl)acetamide]",81

# Same assay, conditions: Homo sapiens, Table 3, ratio of number of tumor cells treated with 10 μM compound to non-treated cells
row,SMILES,viability at 10 µM [%]
1,"CCOc1ccc(-c2cnc(NC(=O)Cc3ccc4nc(N)sc4c3)s2)cc1 [Compound 3-11, 2-(2-aminobenzo[d]thiazol-6-yl)-N-(5-(4-ethoxyphenyl)thiazol-2-yl)acetamide]",60

# Same assay, conditions: Homo sapiens, Table 5, ratio of number of tumor cells treated with 10 μM compound to non-treated cells
row,SMILES,viability at 10 µM [%]
1,"CCCCc1ccc(Oc2sc(NC(=O)c3ccc([N+](=O)[O-])s3)nc2-c2ccc(C(C)(C)C)cc2)cc1 [Compound 5-89, N-(4-(4-(tert-butyl)phenyl)-5-(4-butylphenoxy)thiazol-2-yl)-5-nitrothiophene-2-carboxamide]",36
2,"CCCCc1ccc(-c2nc(NC(=O)c3ccc([N+](=O)[O-])s3)sc2Oc2ccc(C(C)(C)CC)cc2)cc1 [Compound 5-104, N-(4-(4-butylphenyl)-5-(4-(tert-pentyl)phenoxy)thiazol-2-yl)-5-nitrothiophene-2-carboxamide]",56
3,"CCCOc1ccc(-c2nc(NC(=O)c3ccc([N+](=O)[O-])s3)sc2Oc2ccc(F)cc2F)cc1 [Compound 5-37, N-(5-(2,4-difluorophenoxy)-4-(4-propoxyphenyl)thiazol-2-yl)-5-nitrothiophene-2-carboxamide]",38
4,"CCCCOc1ccc(-c2nc(NC(=O)c3ccc([N+](=O)[O-])s3)sc2Oc2ccc(C(C)(C)C)cc2)cc1 [Compound 5-90, N-(4-(4-butoxyphenyl)-5-(4-(tert-butyl)phenoxy)thiazol-2-yl)-5-nitrothiophene-2-carboxamide]",48
5,"CC(C)(C)C#Cc1ccc(-c2nc(NC(=O)c3ccc([N+](=O)[O-])s3)sc2Oc2ccccc2)s1 [Compound 5-41, N-(4-(5-(3,3-dimethylbut-1-yn-1-yl)thiophen-2-yl)-5-phenoxythiazol-2-yl)-5-nitrothiophene-2-carboxamide]",41
6,"CCCCc1ccc(-c2nc(NC(=O)c3ccc([N+](=O)[O-])s3)sc2Oc2ccccc2)cc1 [Compound 5-79, N-(4-(4-butylphenyl)-5-phenoxythiazol-2-yl)-5-nitrothiophene-2-carboxamide]",31
7,"CCCOc1ccc(-c2nc(NC(=O)c3ccc([N+](=O)[O-])s3)sc2Oc2ccc(Cl)c(Cl)c2)cc1 [Compound 5-44, N-(5-(3,4-dichlorophenoxy)-4-(4-propoxyphenyl)thiazol-2-yl)-5-nitrothiophene-2-carboxamide]",41
8,"CCCCc1ccc(Oc2sc(NC(=O)c3ccc([N+](=O)[O-])s3)nc2-c2ccc(F)cc2)cc1 [Compound 5-65, N-(5-(4-butylphenoxy)-4-(4-fluorophenyl)thiazol-2-yl)-5-nitrothiophene-2-carboxamide]",43
9,"CCCCOc1ccc(-c2nc(NC(=O)c3ccc([N+](=O)[O-])s3)sc2Oc2cc(C)cc(C)c2)cc1 [Compound 5-106, N-(4-(4-butoxyphenyl)-5-(3,5-dimethylphenoxy)thiazol-2-yl)-5-nitrothiophene-2-carboxamide]",29

# Same assay, conditions: Homo sapiens, Table 6, ratio of number of tumor cells treated with 10 μM compound to non-treated cells
row,SMILES,viability at 10 µM [%]
1,"CC(C)(C)c1ccc(-c2nc(NC(=O)c3ccc([N+](=O)[O-])s3)sc2-c2cccc(Br)c2)cc1 [Compound 6-58, N-(5-(3-bromophenyl)-4-(4-(tert-butyl)phenyl)thiazol-2-yl)-5-nitrothiophene-2-carboxamide]",32
2,"CC(C)(C)c1ccc(-c2nc(NC(=O)c3ccc([N+](=O)[O-])s3)sc2-c2ccccc2Br)cc1 [Compound 6-57, N-(5-(2-bromophenyl)-4-(4-(tert-butyl)phenyl)thiazol-2-yl)-5-nitrothiophene-2-carboxamide]",29
3,"CC(C)(C)c1ccc(-c2nc(NC(=O)c3ccc([N+](=O)[O-])s3)sc2Br)cc1 [Compound 6-60, N-(5-bromo-4-(4-(tert-butyl)phenyl)thiazol-2-yl)-5-nitrothiophene-2-carboxamide]",45
